Source: ChEMBL document CHEMBL1127951, “Synthesis and RNA cleaving activities of polyamine derived novel artificial ribonuclease” (Bioorg Med Chem Lett, 1994)

Tested on: Nucleic Acid
Assay: Binding affinity towards calf thymus DNA was determined
Format: nucleic-acid assay
Details: Bos taurus

SMILES: NCCC(=O)NCCN(CCNC(=O)Cc1c[nH]cn1)CCNC(=O)c1c2ccccc2nc2ccccc12
- K: 16000 M⁻¹

SMILES: NCCN(CCN)CCNC(=O)c1c2ccccc2nc2ccccc12
- K: 150000 M⁻¹

SMILES: NCCN(CCNC(=O)Cc1c[nH]cn1)CCNC(=O)c1c2ccccc2nc2ccccc12
- K: 22000 M⁻¹
